Assay results from patent US10100022B2, “Sphingosine kinase inhibitors” (University of Virginia Patent Foundation, priority 2014, dated 2018).
Counter-ions that a name gives are not always drawn.

Tests used:
[1] = target: T1, human sphingosine kinase type 2 (hSPHK2) (Homo sapiens, UniProt Q9NRA0); experiment: Sphingosine kinase assay, recombinant human SPHK2 ([32P]S1P product, scintillation counting); format: biochemical; settings: read-out: activity hSPHK2 (range estimate of KI)
T1 construct: purchased; host or cells: Sf9 insect cells (baculovirus)
T1 sequence (Q9NRA0 1-654): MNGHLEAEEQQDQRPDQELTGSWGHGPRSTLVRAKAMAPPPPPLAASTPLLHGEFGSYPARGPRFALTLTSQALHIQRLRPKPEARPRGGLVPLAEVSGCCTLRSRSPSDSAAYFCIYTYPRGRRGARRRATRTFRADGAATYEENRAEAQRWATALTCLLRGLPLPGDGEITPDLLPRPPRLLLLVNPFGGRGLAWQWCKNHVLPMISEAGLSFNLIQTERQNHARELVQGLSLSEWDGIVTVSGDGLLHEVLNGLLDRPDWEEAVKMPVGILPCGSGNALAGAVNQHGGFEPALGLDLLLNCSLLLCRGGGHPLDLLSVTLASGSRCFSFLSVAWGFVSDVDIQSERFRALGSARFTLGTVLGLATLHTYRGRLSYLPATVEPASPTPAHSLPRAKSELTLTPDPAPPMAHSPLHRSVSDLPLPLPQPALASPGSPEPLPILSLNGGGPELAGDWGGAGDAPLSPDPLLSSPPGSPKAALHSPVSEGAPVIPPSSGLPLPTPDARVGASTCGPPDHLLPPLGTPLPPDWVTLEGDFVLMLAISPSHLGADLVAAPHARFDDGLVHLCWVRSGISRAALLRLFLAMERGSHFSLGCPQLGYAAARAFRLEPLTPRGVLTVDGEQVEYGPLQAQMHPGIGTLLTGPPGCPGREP
Experimental: (§1) Recombinant baculovirus encoding human sphingosine kinase type 1 (SPHK1) was used to infect Sf9 insect cells and after 2-5 days, cleared lysates were prepared and used without further purification. Human SPHK2, which was partially purified from baculovirus-infected Sf9 cell lysates, was purchased from a commercial source. Sphingosine kinase assays were performed using standard protocols. Product [^32P]S1P was recovered by binding to cation exchange paper and quantified by scintillation counting.

[2] = target: T2, human sphingosine kinase type 1 (hSPHK1) (Homo sapiens, UniProt Q9NYA1); experiment: Sphingosine kinase assay, recombinant human SPHK1 ([32P]S1P product, scintillation counting); format: biochemical; settings: read-out: activity hSPHK1 (range estimate of KI)
T2 construct: made in house; host or cells: Sf9 insect cells (baculovirus)
T2 sequence (Q9NYA1 whole entry): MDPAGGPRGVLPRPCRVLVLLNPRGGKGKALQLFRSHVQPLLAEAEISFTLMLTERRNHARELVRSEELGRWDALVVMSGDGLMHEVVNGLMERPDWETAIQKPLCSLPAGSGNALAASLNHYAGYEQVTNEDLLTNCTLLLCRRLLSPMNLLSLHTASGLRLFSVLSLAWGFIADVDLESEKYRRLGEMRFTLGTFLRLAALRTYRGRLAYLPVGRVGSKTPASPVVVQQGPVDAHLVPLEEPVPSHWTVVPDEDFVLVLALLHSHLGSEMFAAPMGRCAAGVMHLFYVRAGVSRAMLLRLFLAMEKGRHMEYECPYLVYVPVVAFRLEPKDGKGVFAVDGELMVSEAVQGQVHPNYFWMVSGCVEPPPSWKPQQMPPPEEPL
Experimental: as §1

Ki [1] [µM]	Ki [2] [µM]	SMILES
< 1	> 10	N=C(N)N1CCC[C@H]1c1nc(-c2ccc(OC/C=C/c3cccc(Br)c3)c(C(F)(F)F)c2)no1 [Compound 86A, (S,E)-2-(3-(4-((3-(3-bromophenyl)allyl)oxy)-3-(trifluoromethyl)phenyl)-1,2,4-oxadiazol-5-yl)pyrrolidine-1-carboximidamide hydrochloride]
< 1	> 10	N=C(N)N1CCC[C@H]1c1nc(-c2ccc(OC/C=C/c3ccc(F)cc3)c(C(F)(F)F)c2)no1 [Compound 87A, (S,E)-2-(3-(4-((3-(4-fluorophenyl)allyl)oxy)-3-(trifluoromethyl)phenyl)-1,2,4-oxadiazol-5-yl)pyrrolidine-1-carboximidamide hydrochloride]
< 1	> 10	CCc1ccc(CCc2ccc(-c3noc([C@@H]4CCCN4C(=N)N)n3)cc2C(F)(F)F)cc1 [Compound 50A, (S)-2-(3-(4-(4-ethylphenethyl)-3-(trifluoromethyl)phenyl)-1,2,4-oxadiazol-5-yl)pyrrolidine-1-carboximidamide hydrochloride]
> 10	> 10	CCCCCCCCOc1ccc(-c2noc([C@@H]3CC(F)(F)CN3C(=N)N)n2)cc1C(F)(F)F [Compound 19A, (S)-amino(4,4-difluoro-2-(3-(4-(octyloxy)-3-(trifluoromethyl)phenyl)-1,2,4-oxadiazol-5-yl)pyrrolidin-1-yl)methaniminium chloride]
< 1	1 to 10	CCCCCCCCOc1ccc(-c2noc([C@@H]3CCN3C(=N)N)n2)cc1C(F)(F)F [Compound 13B]
1 to 10	> 10	N=C(N)N1CCC[C@H]1c1nc(-c2ccc(CCC3CC3)c(C(F)(F)F)c2)no1 [Compound 38A, (S)-2-(3-(4-(2-cyclopropylethyl)-3-(trifluoromethyl)phenyl)-1,2,4-oxadiazol-5-yl)pyrrolidine-1-carboximidamide hydrochloride]
< 1	> 10	CCCC/C=C/COc1ccc(-c2noc([C@@H]3CCCN3C(=N)N)n2)cc1C(F)(F)F [Compound 78A, (S,E)-amino(2-(3-(4-(hept-2-en-1-yloxy)-3-(trifluoromethyl)phenyl)-1,2,4-oxadiazol-5-yl)pyrrolidin-1-yl)methaniminium 2,2,2-trifluoroacetate]
< 1	> 10	COc1ccc(CCc2ccc(-c3noc([C@@H]4CCCN4C(=N)N)n3)cc2C(F)(F)F)cc1 [Compound 42A, (S)-2-(3-(4-(4-methoxyphenethyl)-3-(trifluoromethyl)phenyl)-1,2,4-oxadiazol-5-yl)pyrrolidine-1-carboximidamide hydrochloride]
> 10	> 10	N=C(N)N1CCC[C@H]1c1nc(-c2ccc3cc(O)ccc3c2)no1 [Compound 51A, (S)-amino(2-(3-(6-hydroxynaphthalen-2-yl)-1,2,4-oxadiazol-5-yl)pyrrolidin-1-yl)methaniminium chloride]
> 10	> 10	CCCCCCCCn1ccc2ccc(-c3noc([C@@H]4CCCN4C(=N)N)n3)cc21 [Compound 75A, (S)-amino(2-(3-(1-octyl-1H-indol-6-yl)-1,2,4-oxadiazol-5-yl)pyrrolidin-1-yl)methaniminium chloride]
< 1	> 10	CCCCCCCCOc1ccc(-c2nnc([C@@H]3CCCN3C(=N)N)s2)cc1C(F)(F)F [Compound 5B]
> 10	> 10	C=CCOc1ccc(-c2noc([C@@H]3CCCN3C(=N)N)n2)cc1C(F)(F)F [Compound 77A, (S)-2-(3-(4-(allyloxy)-3-(trifluoromethyl)phenyl)-1,2,4-oxadiazol-5-yl)pyrrolidine-1-carboximidamide hydrochloride]
< 1	> 10	CCCC/C=C\CCOc1ccc(-c2noc([C@@H]3CCCN3C(=N)N)n2)cc1C(F)(F)F [Compound 85A, (S,Z)-amino(2-(3-(4-(oct-3-en-1-yloxy)-3-(trifluoromethyl)phenyl)-1,2,4-oxadiazol-5-yl)pyrrolidin-1-yl)methaniminium 2,2,2-trifluoroacetate]
> 10	> 10	N=C(N)N1CCC[C@H]1c1nc(-c2ccc(OCCCc3ccc4c(c3)OCCO4)c(C(F)(F)F)c2)no1 [Compound 29A, (S)-amino(2-(3-(4-(3-(2,3-dihydrobenzo[b][1,4]dioxin-6-yl)propoxy)-3-(trifluoromethyl)phenyl)-1,2,4-oxadiazol-5-yl)pyrrolidin-1-yl)methaniminium chloride]
1 to 10	> 10	C=CCn1c(CCCOc2ccc(-c3noc([C@@H]4[C@@H](O)CCN4C(=N)N)n3)cc2C(F)(F)F)nc2ccccc21 [Compound 47A, ((2S,3S)-2-(3-(4-(3-(1-allyl-1H-benzo[d]imidazol-2-yl)propoxy)-3-(trifluoromethyl)phenyl)-1,2,4-oxadiazol-5-yl)-3-hydroxypyrrolidin-1-yl)(amino)methaniminium chloride]
1 to 10	> 10	CCCCCCCCCCn1ccc2ccc(-c3noc([C@@H]4CCCN4C(=N)N)n3)cc21 [Compound 18A, (S)-amino(2-(3-(1-decyl-1H-indol-6-yl)-1,2,4-oxadiazol-5-yl)pyrrolidin-1-yl)methaniminium chloride]
< 1	> 10	N=C(N)N1CCC[C@H]1c1nc(-c2ccc(CCc3ccc(C(F)(F)F)cc3)c(C(F)(F)F)c2)no1 [Compound 39A, (S)-2-(3-(3-(trifluoromethyl)-4-(4-(trifluoromethyl)phenethyl)phenyl)-1,2,4-oxadiazol-5-yl)pyrrolidine-1-carboximidamide hydrochloride]
1 to 10	> 10	CCCC=CCOc1ccc(-c2noc([C@@H]3CCCN3C(=N)N)n2)cc1C(F)(F)F [Compound 80A, (S)-amino(2-(3-(4-(hex-2-en-1-yloxy)-3-(trifluoromethyl)phenyl)-1,2,4-oxadiazol-5-yl)pyrrolidin-1-yl)methaniminium 2,2,2-trifluoroacetate]
1 to 10	> 10	N=C(N)N1CCC[C@H]1c1nc(-c2ccc3cc(OCc4cccc(C(F)(F)F)c4)ccc3c2)no1 [Compound 67A, (S)-amino(2-(3-(6-((3-(trifluoromethyl)benzyl)oxy)naphthalen-2-yl)-1,2,4-oxadiazol-5-yl)pyrrolidin-1-yl)methaniminium chloride]
< 1	> 10	CCCCCCCCn1ccc2c(-c3noc([C@@H]4CCCN4C(=N)N)n3)cccc21 [Compound 9B, (S)-amino(2-(3-(1-octyl-1H-indol-4-yl)-1,2,4-oxadiazol-5-yl)pyrrolidin-1-yl)methaniminium chloride]
> 10	> 10	N=C(N)N1CCC[C@H]1c1nc(-c2ccc(OC/C=C/c3ccccc3C(F)(F)F)c(C(F)(F)F)c2)no1 [Compound 89A, (S,E)-2-(3-(3-(trifluoromethyl)-4-((3-(2-(trifluoromethyl)phenyl)allyl)oxy)phenyl)-1,2,4-oxadiazol-5-yl)pyrrolidine-1-carboximidamide hydrochloride]
1 to 10	> 10	N=C(N)N1CC[C@H](O)[C@H]1c1nc(-c2ccc(OCCCc3ccc4c(c3)OCCO4)c(C(F)(F)F)c2)no1 [Compound 27A]
< 1	> 10	CCCCCCCCOc1ccc(-c2noc([C@@H]3C[C@@H](O)CN3C(=N)N)n2)cc1C(F)(F)F [Compound 8A, amino((2S,4R)-4-hydroxy-2-(3-(4-(octyloxy)-3-(trifluoromethyl)phenyl)-1,2,4-oxadiazol-5-yl)pyrrolidin-1-yl)methaniminium chloride]

SMILES	Ki [1] [µM]	Ki [2] [µM]
CCCCCCCCn1cc(-c2noc([C@@H]3CCCN3C(=N)N)n2)c2ccccc21 [Compound 74A, (S)-amino(2-(3-(1-octyl-1H-indol-3-yl)-1,2,4-oxadiazol-5-yl)pyrrolidin-1-yl)methaniminium chloride]	1 to 10	> 10
CC(C)COc1ccc2cc(-c3noc([C@@H]4CCCN4C(=N)N)n3)ccc2c1 [Compound 14A, (S)-amino(2-(3-(6-isobutoxynaphthalen-2-yl)-1,2,4-oxadiazol-5-yl)pyrrolidin-1-yl)methaniminium chloride]	> 10	> 10
COCCCCOc1ccc2cc(-c3noc([C@@H]4CCCN4C(=N)N)n3)ccc2c1 [Compound 65A, (S)-amino(2-(3-(6-(4-methoxybutoxy)naphthalen-2-yl)-1,2,4-oxadiazol-5-yl)pyrrolidin-1-yl)methaniminium chloride]	> 10	> 10
